{
  "source": "ChEMBL document CHEMBL6153037",
  "about": "“Developing dual-responsive quinolinium prodrugs of 8-hydroxyquinoline by harnessing the dual chelating sites” (Eur J Med Chem, 2025)",
  "key": {"[1]": {"assay": "Prodrug conversion in solution containing ONOO- assessed as 8-HQ release", "type": "ADME"}, "[2]": {"system": "MDA-MB-231", "assay": "Antitumor activity against human MDA-MB-231 cells xenografted in BALB/c nude mouse assessed as tumor size at 20 mg/kg, iv administered every two days for 21 days (reference value: 1940 mm3)", "type": "functional", "details": "time 21 day"}, "[3]": {"system": "MDA-MB-231", "assay": "Induction of apoptosis in human MDA-MB-231 cells assessed as necrotic cells at 0.8 uM incubated for 24 hrs by Annexin V-FITC/PI staining based flow cytometry (reference value: 0.59 %)", "type": "functional"}, "[4]": {"system": "HeLa", "assay": "Cytotoxicity against CuCl2-treated human HeLa cells assessed as inhibition of cell viability incubated for 48 hrs by MTT assay", "type": "functional, cell-based"}, "[5]": {"system": "MCF-10A", "assay": "Cytotoxicity against human MCF-10A cells assessed as increase in red fluorescence at 0.4 to 0.8 uM by Calcein AM/PI staining based analysis", "type": "toxicity, cell-based", "details": "dose 0.4-0.8 µM"}, "[6]": {"system": "MCF-10A", "assay": "Induction of apoptosis in human MCF-10A cells assessed as late apoptotic cells at 0.4 uM incubated for 24 hrs by Annexin V-FITC/PI staining based flow cytometry (reference value: 3.13 %)", "type": "toxicity, cell-based"}, "[7]": {"system": "MCF-10A", "assay": "Induction of apoptosis in human MCF-10A cells assessed as early apoptotic cells at 1.2 uM incubated for 24 hrs by Annexin V-FITC/PI staining based flow cytometry (reference value: 2.96 %)", "type": "toxicity, cell-based"}, "[8]": {"system": "OVCAR-3", "assay": "Cytotoxicity against CuCl2-treated human OVCAR-3 cells assessed as inhibition of cell viability incubated for 48 hrs by MTT assay", "type": "functional, cell-based", "details": "OVCAR-3, 48 h"}, "[9]": {"system": "MDA-MB-231", "assay": "Anti-migration activity in human MDA-MB-231 cells at 0.8 uM incubated for 48 hrs by wound healing assay (reference value: 65.2 %)", "type": "functional"}, "[10]": {"assay": "Induction of apoptosis in human MCF-10A cells assessed as viable cells at 0.8 uM incubated for 24 hrs by Annexin V-FITC/PI staining based flow cytometry (reference value: 92.5 %)", "type": "toxicity, cell-based", "details": "read-out: Activity"}, "[11]": {"system": "MDA-MB-231", "assay": "Induction of apoptosis in human MDA-MB-231 cells assessed as late apoptotic cells at 0.8 uM incubated for 24 hrs by Annexin V-FITC/PI staining based flow cytometry (reference value: 5.81 %)", "type": "functional"}, "[12]": {"assay": "Cytotoxicity against human MCF-10A cells assessed as cell survival at 10 uM incubated for 48 hrs by MTT assay relative to control", "type": "toxicity, cell-based", "details": "read-out: Survival"}, "[13]": {"system": "MDA-MB-231", "assay": "Antitumor activity against human MDA-MB-231 cells assessed as reduction in sphere volume incubated for 6 hrs followed by medium replacement without compound measured after 6 days by microscopic analysis", "type": "functional, cell-based"}, "[14]": {"system": "MCF-10A", "assay": "Inhibition of mitochondrial membrane potential in human MCF-10A cells assessed as increase in intracellular calcium level at 0.4 to 0.8 uM incubated for 24 hrs by Fluo-4 AM dye based analysis", "type": "toxicity, cell-based", "details": "dose 0.4-0.8 µM"}, "[15]": {"system": "MCF-10A", "assay": "Inhibition of mitochondrial membrane potential in human MCF-10A cells assessed as decrease in ATP level at 0.4 to 0.8 uM incubated for 24 hrs by luminescence based analysis", "type": "toxicity, cell-based", "details": "dose 0.4-0.8 µM"}, "[16]": {"system": "MDA-MB-231", "assay": "Inhibition of DNA synthesis in human MDA-MB-231 cells by EdU incorporation assay", "type": "functional, cell-based"}, "[17]": {"system": "MDA-MB-231", "assay": "Inhibition of mitochondrial membrane potential in human MDA-MB-231 cells assessed as decrease in ATP level at 0.4 to 0.8 uM incubated for 24 hrs by luminescence based analysis", "type": "functional, cell-based", "details": "dose 0.4-0.8 µM"}, "[18]": {"system": "MCF-10A", "assay": "Induction of apoptosis in human MCF-10A cells assessed as necrotic cells at 1.2 uM incubated for 24 hrs by Annexin V-FITC/PI staining based flow cytometry (reference value: 1.38 %)", "type": "toxicity, cell-based"}, "[19]": {"system": "MDA-MB-231", "assay": "Antitumor activity against human MDA-MB-231 cells xenografted in BALB/c nude mouse assessed as tumor growth inhibition at 10 to 20 mg/kg, iv administered every two days for 21 days", "type": "functional, organism-based", "details": "dose 10-20 mg/kg, time 21.0 day"}, "[20]": {"system": "MDA-MB-231", "assay": "Induction of apoptosis in human MDA-MB-231 cells assessed as necrotic cells at 0.4 uM incubated for 24 hrs by Annexin V-FITC/PI staining based flow cytometry (reference value: 0.59 %)", "type": "functional"}, "[21]": {"system": "MCF-10A", "assay": "Induction of apoptosis in human MCF-10A cells assessed as early apoptotic cells at 0.4 uM incubated for 24 hrs by Annexin V-FITC/PI staining based flow cytometry (reference value: 2.96 %)", "type": "toxicity, cell-based"}, "[22]": {"system": "MCF-10A", "assay": "Inhibition of mitochondrial membrane potential in human MCF-10A cells assessed as increase in green fluorescence at 0.8 uM incubated for 24 hrs by JC-1 dye based analysis", "type": "toxicity, cell-based"}, "[23]": {"system": "MDA-MB-231", "assay": "Cytotoxicity against NAC-treated human MDA-MB-231 cells incubated for 48 hrs by MTT assay", "type": "functional, cell-based"}, "[24]": {"system": "MDA-MB-231", "assay": "Anti-migration activity in human MDA-MB-231 cells at 0.4 uM incubated for 48 hrs by wound healing assay (reference value: 65.2 %)", "type": "functional"}},
  "note": "Active and inactive are the calls of the source. The calls are words filed in the database; no cut-off is given here.",
  "data": [
    {"molecule": "CC1(C)OB(c2ccc(C[n+]3cccc4cccc(O)c43)cc2)OC1(C)C.[Br-]", "values": [
      {"measurement": "Drug metabolism", "setting": "[1]", "result": "metabolite_detected"},
      {"measurement": "Activity", "setting": "[2]", "result": 710, "unit": "mm3"},
      {"measurement": "Activity", "setting": "[3]", "result": 7.08, "unit": "%"},
      {"measurement": "IC50", "setting": "[4]", "result": 11.2, "unit": "µM"},
      {"measurement": "Activity", "setting": "[5]", "result": "Non-toxic"},
      {"measurement": "Activity", "setting": "[6]", "result": 2.74, "unit": "%"},
      {"measurement": "Activity", "setting": "[7]", "result": 2.12, "unit": "%"},
      {"measurement": "IC50", "setting": "[8]", "result": 6.63, "unit": "µM"},
      {"measurement": "Activity", "setting": "[9]", "result": 12.8, "unit": "%"},
      {"measurement": "viability at 24 h, 0.8 µM", "setting": "[10]", "result": 93.7, "unit": "%"},
      {"measurement": "Activity", "setting": "[11]", "result": 27.9, "unit": "%"},
      {"measurement": "viability at 48 h, 10 µM", "setting": "[12]", "result": 86, "unit": "%"},
      {"measurement": "Activity", "setting": "[13]", "result": "Active"},
      {"measurement": "Activity", "setting": "[14]", "result": "Non-toxic"},
      {"measurement": "Activity", "setting": "[15]", "result": "Non-toxic"},
      {"measurement": "inhibition", "setting": "[16]", "result": "Active"},
      {"measurement": "inhibition", "setting": "[17]", "result": "Active"},
      {"measurement": "Activity", "setting": "[18]", "result": 0.84, "unit": "%"},
      {"measurement": "inhibition", "setting": "[19]", "result": "Active"},
      {"measurement": "Activity", "setting": "[20]", "result": 1.47, "unit": "%"},
      {"measurement": "Activity", "setting": "[21]", "result": 2, "unit": "%"},
      {"measurement": "Activity", "setting": "[22]", "result": "Non-toxic"},
      {"measurement": "Activity", "setting": "[23]", "result": "inactive"},
      {"measurement": "Activity", "setting": "[24]", "result": 34.6, "unit": "%"}
    ]}
  ]
}
